Measured values from US11903386B2, “Strigolactone analogs and their usage in plant control” (King Abdullah University of Science and Technology, priority 2016, dated 2024).
“Also recorded” adds a separate entry of the source.

Experiments:
rice leaf segments = assay: Dark-induced leaf senescence of rice leaf segments; format: in vivo, O. sativa, var. Shiokari
Method: One week old rice (O. sativa, var. Shiokari) seedlings were established as mentioned above. Uniform seedlings were transferred to 50 ml tubes containing half strength Hoaglands nutrient solution for 7 days and grown in an incubator under white fluorescent light (130-180 μM m^−2 s^−1) with 16 h:8 h (L/D) at 28° C. for one week. Leaf segments of 2 cm were cut from middle part of third leaves of rice plants. Each segment was put in a well (in 24-well plates) containing 2 ml of 2.5 mM MES buffer with 0.05% Tween-20, and incubated at 30° C. in the dark for 7 days. After application of MPs, color change, chlorophyll content, ion leakage and gene expression were monitored daily for 7 days.

[1] = tested on: rice seedlings (Shiokari, d3, d10); assay: Growth and fresh biomass of hydroponically grown rice seedlings; format: in vivo; details: 2.5 μM, twice a week for three weeks
Method: Rice seeds (WT, d3, d10) were surface-sterilized by washing with 70% ethanol for 1 min and then with 2.5% sodium hypochlorite for 15 min. Seeds were then rinsed thoroughly with sterile MilliQ water and incubated in water for 2 days at 30° C. in the dark. Pre-germinated seeds were transferred to filter papers containing ½ strength MS medium in 90 mm petri dishes and incubated at 30° C. under fluorescent white light (130-180 μM m^−2 s^−1) for one week. Seven day-old seedlings were transferred to 50 ml falcon tubes (one seedling per tube) containing modified half-strength Hoagland nutrient solution and grown in greenhouse. Plants were treated with MPs at 2.5 μM-2.5×10-7 μM, using GR24 as positive control. The compounds were applied six times, twice a week. Number of tillers per plant, plant height and fresh biomass were measured at final harvest.

P. ramosa seeds = assay: P. ramosa seed germination bioassay; format: in vivo; details: 1.0 μM
Method: Parasitic weed seeds (S. hermonthica and P. ramosa) germination activity was recorded as described previously (Jamil et al., 2012). Six pre-conditioned seed discs were placed in a 90 mm petri-dish containing a filter paper ring wetted with 0.9 ml sterile MilliQ water. […] GR24 solutions with equal concentrations and sterile MilliQ water were included as a positive and negative control, respectively. After application, seeds were incubated at 30° C./25° C. in the dark for two days. Germination (seeds with radical emerging through seed coat) was scored under a binocular microscope, and germination rate (%) was calculated.

Striga = assay: Trial in Burkina Faso, wooden boxes with artificially infested soil and pearl millet host; format: in vivo; details: 1×1 m^2 boxes, artificially infested soil, pearl millet host
Method: Very recently, the activity of MP1 was also evaluated in a trial conducted in Burkina Faso, in which 1×1 m^2 wooden boxes were used which were filled with artificially infested soil and pearl millet as a host.

Arabidopsis seedlings = assay: Arabidopsis hypocotyl elongation assay; format: in vivo; details: 1.0 μM
Method: Sterilized Arabidopsis seeds were sown on half strength MS (with 0.5% sucrose+1% agar, 0.5 g L-1 MES, pH 5.7) plates supplemented with MPs or GR24 (at 1.0 μM). Plates were stored at 4° C. in darkness for 3 days. To initiate germination, plates were exposed to continuous white light for 24 h then transferred to continuous monochromatic red light (160 Lux, 22° C.) conditions for another 4 days. For hypocotyl length measurement, at least 30 seedlings were measured using the publically available ImageJ software (http://rsbweb.nih.gov/ij/) after taking digital photographs. Monochromatic red light source was applied as described previously (Wu and Yang, 2010). Light flow rates were measured using a Li250 quantum photometer (Li-Cor, Lincoln, NE, USA).

COC(=O)/C(=C/OC1C=C(C)C(=O)O1)c1ccccc1 (racemic) [MP3, (E)-methyl 3-(4-methyl-5-oxo-2,5-dihydrofuran-2-yloxy)-2-phenylacrylate]
Transcript levels of Senescence Associated Genes Osl20 and Osl295 (rice leaf segments; after 5 days of treatment): more pronounced in MP3 treated samples
Change in leaf color, time relative to control (rice leaf segments; dark, leaf segments): about two days earlier than the control
Change in leaf color, day observed (rice leaf segments; dark, leaf segments monitored 7 days): already on the third day after treatment
Ion leakage compared to the control (rice leaf segments; first five days): did not detect a difference
Ion leakage compared to the control (rice leaf segments; sixth and seventh day): striking increase
Chlorophyll content (rice leaf segments; third day): clear reduction
Growth, senescence symptoms and biomass of rice seedlings [1]: stunted the growth and caused senescence symptoms; also recorded: growth retardation and senescence

COC(=O)/C(=C/OC1C=C(C)C(=O)O1)c1ccc([N+](=O)[O-])cc1 (racemic) [MP1, (E)-methyl 3-(4-methyl-5-oxo-2,5-dihydrofuran-2-yloxy)-2-(4-nitrophenyl)acrylate]
P. ramosa seed germination activity (P. ramosa seeds): much higher activity; also recorded: quite similar to that of GR24
Germination activity compared with GR24 (Striga): significantly higher germination activity than GR24

COC(=O)/C(=C/OC1C=C(C)C(=O)O1)c1ccc(Cl)cc1 (stereo not shown) [MP7]
Inhibition of hypocotyl growth (Arabidopsis seedlings): stronger inhibitory effect than GR24
